Earlier results on one molecule are cited in US20060204442A1, “Magnetically targetable particles comprising magnetic components and biocompatible polymers for site-specific delivery of biologically active agents” (Bankruptcy Estate of Ferx, Inc., priority 2003, published 2006).

The series concerns cell lines of the national Cancer Institute's Anticancer Drug Screen Panel. The conditions noted are these: Rixe et al., Biochem Pharmacol 52.

Consider `[NH2][Pt]([NH2])([Cl])[Cl]` [CDDP, cisplatin], for which the “IC50, published value” was 0.537 µg/mL.
